According to US20260174859A1, “ISOINDOLINONE DERIVATIVE HAVING ARYLCYCLOALKYLAMIDE STRUCTURE, AND USE THEREOF” (ONCORD BIO INC, priority 2022, published 2026):

Experiments:
[1] = system: NCI-H1155 (lung cancer cells); assay: CytoX cell viability assay in NCI-H1155 lung cancer cells; details: Homo sapiens, NCI-H1155, 72 h; for viability at 0.01 µM: read-out: NCI-H1155 (% viability) at 10 nM; for viability at 0.5 µM: read-out: NCI-H1155 (% viability) at 500 nM
Protocol: (§1) The viability of NCI-H1155 (lung cancer cells) was measured using the CytoX cell viability assay kit (LPS Solution, #CYT3000). […] CytoX solution was then added to the cells and incubated for 1 hour.

KG-1 cells = assay: Cytotoxicity assay (WST-1) in KG-1 cancer cells; assay type: cell-based; details: Homo sapiens, 72 hours
Protocol: To evaluate the effects of the compounds of the present disclosure on cancer cells, a cytotoxicity assay was conducted as follows.
Cancer cells (KG-1) were seeded at a density of 10,000 cells per well in 96-well plates. The compound of the present disclosure and control compounds (Comparative Compounds 1, 2, and 3) were treated at predetermined concentrations. After 72 hours, the cells were treated with WST-1 reagent for 1 hour. Then, absorbance was read at 450 nm using a SpectraMax spectrophotometer to determine cell viability.

[2] = system: NCI-H1155 (lung cancer cells)
Protocol: as §1

| Structure (SMILES) | viability at 0.01 µM [1] [%] | viability at 0.5 µM [1] [%] | IC50 (KG-1 cells) [µM] | NCI-H1155 (% viability) at 10 nM ([2]; 0.01 µM) [%] | NCI-H1155 (% viability) at 500 nM ([2]; 0.5 µM) [%] |
| --- | --- | --- | --- | --- | --- |
| Cc1ccc([C@H]2C[C@@H]2C(=O)NCc2ccc3c(c2)CN(C2CCC(=O)NC2=O)C3=O)cc1 (stereo partly drawn) [Cpd. 12, (1S,2S)—N-((2-(2,6-dioxopiperidin-3-yl)-1-oxoisoindolin-5-yl)methyl)-2-(p-tolyl)cyclopropane-1-carboxamide] | 44 | 27 | – | – | – |
| O=C1CCC(N2Cc3cc(CNC(=O)C4CC4c4ccc(C(F)(F)F)cc4)ccc3C2=O)C(=O)N1 (stereo not drawn) [Cpd. 11, N-((2-(2,6-dioxopiperidin-3-yl)-1-oxoisoindolin-5-yl)methyl)-2-(4-(trifluoromethyl)phenyl)cyclopropane-1-carboxamide] | 79 | 34 | – | – | – |
| O=C1CCC(N2Cc3cc(CNC(=O)[C@@H]4C[C@H]4c4ccc(Cl)cc4)ccc3C2=O)C(=O)N1 (stereo partly drawn) [Cpd. 3, (1R,2R)-2-(4-chlorophenyl)-N-((2-(2,6-dioxopiperidin-3-yl)-1-oxoisoindolin-5-yl)methyl)cyclopropane-1-carboxamide] | 4 | 4 | – | – | – |
| O=C1CCC(N2Cc3cc(CNC(=O)c4cc5ccccc5cn4)ccc3C2=O)C(=O)N1 (stereo not drawn) [Comparative Cpd. 1, N-((2-(2,6-dioxopiperidin-3-yl)-1-oxoisoindolin-5-yl)methyl) isoquinoline-3-carboxamide] | – | – | > 10 | – | – |
| O=C1CCC(N2Cc3cc(CNC(=O)[C@@H]4C[C@H]4c4ccc(F)cc4)ccc3C2=O)C(=O)N1 (stereo partly drawn) [Cpd. 8, (1R,2R)—N-((2-(2,6-dioxopiperidin-3-yl)-1-oxoisoindolin-5-yl)methyl)-2-(4-fluorophenyl)cyclopropane-1-carboxamide] | 48 | 26 | – | – | – |
| O=C1CCC(N2Cc3cc(CNC(=O)C(F)(F)c4ccc(Cl)cc4)ccc3C2=O)C(=O)N1 (stereo not drawn) [CC-90009 (Eragidomide), Eragidomide] | – | – | – | 85.0 | 23.25 |
| O=C1CCC(N2Cc3cc(CNC(=O)C4CCC4c4ccccc4)ccc3C2=O)C(=O)N1 (stereo not drawn) [Cpd. 14, N-((2-(2,6-dioxopiperidin-3-yl)-1-oxoisoindolin-5-yl)methyl)-2-phenylcyclobutane-1-carboxamide] | 96 | 57 | – | – | – |
| O=C1CCC(N2Cc3cc(CNC(=O)C4CC4c4ccc(Cl)cc4Cl)ccc3C2=O)C(=O)N1 (stereo not drawn) [Cpd. 13, 2-(2,4-dichlorophenyl)-N-((2-(2,6-dioxopiperidin-3-yl)-1-oxoisoindolin-5-yl)methyl)cyclopropane-1-carboxamide] | 27 | 24 | – | – | – |
| O=C1CCC(N2Cc3cc(CNC(=O)[C@H]4C[C@@H]4c4ccccc4)ccc3C2=O)C(=O)N1 (stereo partly drawn) [Cpd. 7, (1S,2S)—N-((2-(2,6-dioxopiperidin-3-yl)-1-oxoisoindolin-5-yl)methyl)-2-phenylcyclopropane-1-carboxamide] | 3 | 4 | – | – | – |
| O=C1CCC(N2Cc3cc(CNC(=O)c4ccc5cc(Cl)ccc5n4)ccc3C2=O)C(=O)N1 (stereo not drawn) [Comparative Cpd. 3, 6-chloro-N-((2-(2,6-dioxopiperidin-3-yl)-1-oxoisoindolin-5-yl)methyl) quinoline-2-carboxamide] | – | – | 4.1 | – | – |
| O=C1CCC(N2Cc3cc(CNC(=O)[C@@H]4C[C@H]4c4cccc(Cl)c4)ccc3C2=O)C(=O)N1 (stereo partly drawn) [Cpd. 6, (1R,2R)-2-(3-chlorophenyl)-N-((2-(2,6-dioxopiperidin-3-yl)-1-oxoisoindolin-5-yl)methyl)cyclopropane-1-carboxamide] | 5 | 4 | – | – | – |
| O=C1CCC(N2Cc3cc(CNC(=O)c4cnc5ccccc5n4)ccc3C2=O)C(=O)N1 (stereo not drawn) [Comparative Cpd. 2, N-((2-(2,6-dioxopiperidin-3-yl)-1-oxoisoindolin-5-yl)methyl)quinoxaline-2-carboxamide] | – | – | > 10 | – | – |
| O=C1CCC(N2Cc3cc(CNC(=O)[C@@H]4C[C@H]4c4cccc(F)c4)ccc3C2=O)C(=O)N1 (stereo partly drawn) [Cpd. 9, (1R,2R)—N-((2-(2,6-dioxopiperidin-3-yl)-1-oxoisoindolin-5-yl)methyl)-2-(3-fluorophenyl)cyclopropane-1-carboxamide] | 52 | 25 | – | – | – |
| O=C1CCC(N2Cc3cc(CNC(=O)[C@@H]4C[C@H]4c4ccccc4)ccc3C2=O)C(=O)N1 (stereo partly drawn) [Cpd. 1, (1R,2R)—N-((2-(2,6-dioxopiperidin-3-yl)-1-oxoisoindolin-5-yl)methyl)-2-phenylcyclopropane-1-carboxamide] | – | – | 0.002 | – | – |
| O=C1CCC(N2Cc3cc(CNC(=O)[C@@H]4C[C@H]4c4ccc(Cl)cc4)ccc3C2=O)C(=O)N1 (mixture of isomers) [Cpd. 5, (1R,2R)-2-(4-chlorophenyl)-N-((2-(2,6-dioxopiperidin-3-yl)-1-oxoisoindolin-5-yl)methyl)cyclopropane-1-carboxamide racemic mixture] | 2 | 4 | – | – | – |
| O=C1CCC(N2Cc3cc(CNC(=O)[C@H]4C[C@@H]4c4cccc(Cl)c4)ccc3C2=O)C(=O)N1 (stereo partly drawn) [Cpd. 10, (1S,2S)-2-(3-chlorophenyl)-N-((2-(2,6-dioxopiperidin-3-yl)-1-oxoisoindolin-5-yl)methyl)cyclopropane-1-carboxamide] | 39 | 25 | – | – | – |
| O=C1CCC(N2Cc3cc(CNC(=O)[C@@H]4C[C@@H]4c4ccccc4)ccc3C2=O)C(=O)N1 (stereo partly drawn) [Cpd. 4, (1R,2S)—N-((2-(2,6-dioxopiperidin-3-yl)-1-oxoisoindolin-5-yl)methyl)-2-phenylcyclopropane-1-carboxamide] | 94 | 95 | – | – | – |
